Reference: ChEMBL document CHEMBL4842350, “Discovery of a Novel Bromodomain and Extra Terminal Domain (BET) Protein Inhibitor, I-BET282E, Suitable for Clinical Progression” (J Med Chem, 2021)
Converted amounts (≈) assume the structure as drawn.

Tests used:
[1] = target: Bromodomain-containing protein 4 (Homo sapiens, UniProt O60885, Y390A); assay: Displacement of Alexa Fluor 647 labelled ligand from recombinant human N-terminal 6His-tagged BRD4-BD1 Y390A mutant (1 to 477 residue) expressed in Escherichia coli incubated for 30 mins by TR-FRET assay
[2] = target: T1, Bromodomain-containing protein 4 (Homo sapiens, UniProt O60885); assay: Inhibition of BRD4 in human PBMC assessed as reduction in LPS-induced IL-6 secretion incubated for 18 to 24 hrs by MSD assay
[3] = target: T1, Bromodomain-containing protein 4; assay: Inhibition of BRD4 in human whole blood assessed as reduction in LPS-induced IL-6 secretion preincubated for 30 mins followed by LPS stimulation and measured after 24 hrs by MSD assay; format: tissue-based
[4] = human, hepatocytes, 2 h, 0.5 µM
[5] = rat, hepatocytes, 2 h, 0.5 µM
[6] = dog, hepatocytes, 2 h, 0.5 µM
Cytochrome P450 2C9 = Cytochrome P450 2C9 (Homo sapiens, UniProt P11712)
Chain of Cytochrome P450 2C9 (P11712 whole entry): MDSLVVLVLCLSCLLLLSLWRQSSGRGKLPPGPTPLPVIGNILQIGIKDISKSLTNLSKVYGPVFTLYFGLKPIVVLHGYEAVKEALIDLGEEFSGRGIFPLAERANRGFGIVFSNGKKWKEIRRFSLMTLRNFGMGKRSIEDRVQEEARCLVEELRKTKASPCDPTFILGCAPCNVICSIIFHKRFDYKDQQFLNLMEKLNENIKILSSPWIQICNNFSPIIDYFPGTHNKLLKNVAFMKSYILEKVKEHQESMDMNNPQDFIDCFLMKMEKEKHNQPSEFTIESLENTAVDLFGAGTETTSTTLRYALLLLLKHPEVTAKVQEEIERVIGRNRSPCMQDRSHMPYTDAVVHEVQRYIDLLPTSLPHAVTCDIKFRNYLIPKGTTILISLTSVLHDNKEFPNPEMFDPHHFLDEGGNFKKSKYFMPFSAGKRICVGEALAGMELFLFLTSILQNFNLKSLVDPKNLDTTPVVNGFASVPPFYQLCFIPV
Description: Inhibition of recombinant human CYP2C9 expressed in Escherichia coli using FCA as substrate incubated for 15 to 60 mins by fluorometric assay

Cytochrome P450 3A4 = Cytochrome P450 3A4 (Homo sapiens, UniProt P08684); assay: Inhibition of recombinant human CYP3A4 expressed in Escherichia coli using VG as probe substrate incubated for 15 to 60 mins by fluorometric assay; format: ADME
Chain of Cytochrome P450 3A4 (P08684 whole entry): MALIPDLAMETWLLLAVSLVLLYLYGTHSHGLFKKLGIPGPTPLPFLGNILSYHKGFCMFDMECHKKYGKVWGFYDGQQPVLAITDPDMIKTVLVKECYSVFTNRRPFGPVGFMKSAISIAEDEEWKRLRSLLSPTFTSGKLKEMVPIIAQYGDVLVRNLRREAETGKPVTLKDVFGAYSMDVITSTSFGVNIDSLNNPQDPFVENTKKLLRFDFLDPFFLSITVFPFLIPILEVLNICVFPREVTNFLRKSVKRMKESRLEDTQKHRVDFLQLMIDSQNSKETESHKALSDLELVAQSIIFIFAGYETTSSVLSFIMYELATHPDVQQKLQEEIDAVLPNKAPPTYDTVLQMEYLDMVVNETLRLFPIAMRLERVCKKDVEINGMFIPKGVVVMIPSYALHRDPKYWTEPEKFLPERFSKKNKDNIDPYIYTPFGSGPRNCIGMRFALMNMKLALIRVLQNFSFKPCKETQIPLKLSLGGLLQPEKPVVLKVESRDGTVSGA

physchem = details: FaSSIF, pH 6.5
Description: Solubility of the compound in FaSSIF at pH 6.5 measured after 30 mins by HPLC analysis

| Compound | IC50 [1] | IC50 [2] | other results |
| --- | --- | --- | --- |
| COc1cc2c(cc1-c1c(C)noc1C)ncc1[nH]c(=O)n(CCN(C)C)c12 | 794 nM | 1580 nM |  |
| COc1cc2c(cc1-c1c(C)noc1C)ncc1nc(C3CCOCC3)n(CC3CC3)c12 | 126 nM | 316 nM | IC50 [3]: 2000 nM |
| COCc1nc2cnc3cc(-c4c(C)noc4C)c(OC)cc3c2n1C(C)COC (racemic) | 200 nM | 631 nM |  |
| CCNC(=O)C[C@@H]1N=C(c2ccc(Cl)cc2)c2cc(OC)ccc2-n2c(C)nnc21 [MOLIBRESIB] |  |  | CLint [4]: < 0.86 mL/min/g liver; CLint [5]: < 0.86 mL/min/g liver; CLint [6]: < 1.7 mL/min/g liver |
| COc1cc2c(cc1-c1c(C)noc1C)ncc1[nH]c(=O)n(CC3CC3)c12 | 631 nM | 398 nM |  |
| COc1cc2c(cc1-c1c(C)noc1C)ncc1[nH]c(=O)n(C3CCNCC3)c12 | 2000 nM | 15800 nM |  |
| COc1cc2c(cc1-c1c(C)noc1C)ncc1[nH]c(=O)n(CC3CCCOC3)c12 (racemic) | 251 nM | 1260 nM |  |
| COCC(C)n1c(=O)[nH]c2cnc3cc(-c4c(C)noc4C)c(OC)cc3c21 (racemic) | 631 nM | 1580 nM |  |
| COc1cc2c(cc1-c1c(C)noc1C)ncc1[nH]c(=O)n(Cc3ccccn3)c12 | 158 nM | 501 nM |  |
| COC[C@H](C)n1c(C2CCOCC2)nc2cnc3cc(-c4c(C)noc4C)c(OC)cc3c21 | 158 nM | 501 nM | IC50 [3]: 316 nM |
| COc1cc2c(cc1-c1c(C)noc1C)ncc1[nH]c(=O)n(CC(C)C)c12 | 794 nM | 1000 nM |  |
| COc1cc2c(cc1-c1c(C)noc1C)ncc1[nH]c(=O)n(C(C)C3CCOCC3)c12 (racemic) | 158 nM | 200 nM |  |
| COc1cc2c(cc1-c1c(C)noc1C)ncc1[nH]c(=O)n(C3CCOCC3)c12 | 1580 nM | 1580 nM |  |
| COc1cc2c(cc1-c1c(C)noc1C)ncc1[nH]c(=O)n(CC3CCOC3)c12 (racemic) | 631 nM | 3980 nM |  |
| CCCC(C)n1c(=O)[nH]c2cnc3cc(-c4c(C)noc4C)c(OC)cc3c21 (stereo not drawn) | 126 nM | 126 nM |  |
| COc1cc2c(cc1-c1c(C)noc1C)ncc1[nH]c(=O)n(C(C)C)c12 | 1260 nM | 3160 nM |  |
| COc1cc2c(cc1-c1c(C)noc1C)ncc1[nH]c(=O)n([C@H](C)c3ccccn3)c12 |  |  | CLint [4]: < 0.86 mL/min/g liver; CLint [5]: < 0.86 mL/min/g liver; CLint [6]: 9.8 mL/min/g liver; solubility at 0.5 h (physchem): 66 µg/mL (≈ 159 µM) |
| COc1cc2c(cc1-c1c(C)noc1C)ncc1[nH]c(=O)n(CC3CCN(C)CC3)c12 | 1260 nM | 3160 nM |  |

Continued, in another order:

| IC50 [1] | IC50 [2] | Compound | other results |
| --- | --- | --- | --- |
| 39.8 nM | 158 nM | COc1cc2c(cc1-c1c(C)noc1C)ncc1nc(C(C)C)n(Cc3ccccn3)c12 |  |
| 39.8 nM | 39.8 nM | COc1cc2c(cc1-c1c(C)noc1C)ncc1nc(C)n(Cc3ccccn3)c12 |  |
| 100 nM | 126 nM | COCC(C)n1c(C2CCOCC2)nc2cnc3cc(-c4c(C)noc4C)c(OC)cc3c21 (racemic) | IC50 [3]: 398 nM |
| 31.6 nM | 39.8 nM | COc1cc2c(cc1-c1c(C)noc1C)ncc1nc(N(C)C)n(CC3CCOCC3)c12 | IC50 (Cytochrome P450 2C9): 1300 nM; IC50 [3]: 251 nM; IC50 (Cytochrome P450 3A4): 10000 nM |
| 31.6 nM | 100 nM | COCCNc1nc2cnc3cc(-c4c(C)noc4C)c(OC)cc3c2n1Cc1ccccn1 | IC50 (Cytochrome P450 2C9): 31600 nM; IC50 [3]: 398 nM; IC50 (Cytochrome P450 3A4): 15800 nM |
| 63.1 nM | 398 nM | COCc1nc2cnc3cc(-c4c(C)noc4C)c(OC)cc3c2n1Cc1ccccn1 |  |
| 31.6 nM | 158 nM | CCc1nc2cnc3cc(-c4c(C)noc4C)c(OC)cc3c2n1Cc1ccccn1 |  |
| 31.6 nM | 100 nM | COc1cc2c(cc1-c1c(C)noc1C)ncc1nc(C3CCOCC3)n(C(C)C3CCOCC3)c12 (stereo not drawn) | IC50 [3]: 200 nM |
| 63.1 nM | 251 nM | COc1cc2c(cc1-c1c(C)noc1C)ncc1nc(C3CCOCC3)n(Cc3ccccn3)c12 |  |
| 79.4 nM | 398 nM | COCc1nc2cnc3cc(-c4c(C)noc4C)c(OC)cc3c2n1CC1CCOCC1 |  |
| 39.8 nM | 25.1 nM | COc1cc2c(cc1-c1c(C)noc1C)ncc1nc(N3CCOCC3)n(CC3CCOCC3)c12 | IC50 [3]: 251 nM |
| 100 nM | 200 nM | COc1cc2c(cc1-c1c(C)noc1C)ncc1[nH]c(=O)n(CC3CCOCC3)c12 |  |
| 39.8 nM | 158 nM | COc1cc2c(cc1-c1c(C)noc1C)ncc1nc(N)n(Cc3ccccn3)c12 |  |
| 12.6 nM | 25.1 nM | COCCNc1nc2cnc3cc(-c4c(C)noc4C)c(OC)cc3c2n1[C@H](C)c1ccccn1 | IC50 (Cytochrome P450 2C9): 7900 nM; IC50 [3]: 158 nM; IC50 (Cytochrome P450 3A4): 7900 nM |
| 25.1 nM | 126 nM | CCCc1nc2cnc3cc(-c4c(C)noc4C)c(OC)cc3c2n1Cc1ccccn1 |  |
